Data from patent publication US20260132127A1, “NOVEL SPIRO COMPOUND” (MITSUBISHI TANABE PHARMA CORPORATION, priority 2021, published 2026).

Molecular target: T1, human TRH-DE (Homo sapiens, UniProt Q9UKU6)
T1 construct: expressed in transfected cells; host or cells: Expi 293 cells (transient expression), membrane fraction
T1 sequence (Q9UKU6 1-1069): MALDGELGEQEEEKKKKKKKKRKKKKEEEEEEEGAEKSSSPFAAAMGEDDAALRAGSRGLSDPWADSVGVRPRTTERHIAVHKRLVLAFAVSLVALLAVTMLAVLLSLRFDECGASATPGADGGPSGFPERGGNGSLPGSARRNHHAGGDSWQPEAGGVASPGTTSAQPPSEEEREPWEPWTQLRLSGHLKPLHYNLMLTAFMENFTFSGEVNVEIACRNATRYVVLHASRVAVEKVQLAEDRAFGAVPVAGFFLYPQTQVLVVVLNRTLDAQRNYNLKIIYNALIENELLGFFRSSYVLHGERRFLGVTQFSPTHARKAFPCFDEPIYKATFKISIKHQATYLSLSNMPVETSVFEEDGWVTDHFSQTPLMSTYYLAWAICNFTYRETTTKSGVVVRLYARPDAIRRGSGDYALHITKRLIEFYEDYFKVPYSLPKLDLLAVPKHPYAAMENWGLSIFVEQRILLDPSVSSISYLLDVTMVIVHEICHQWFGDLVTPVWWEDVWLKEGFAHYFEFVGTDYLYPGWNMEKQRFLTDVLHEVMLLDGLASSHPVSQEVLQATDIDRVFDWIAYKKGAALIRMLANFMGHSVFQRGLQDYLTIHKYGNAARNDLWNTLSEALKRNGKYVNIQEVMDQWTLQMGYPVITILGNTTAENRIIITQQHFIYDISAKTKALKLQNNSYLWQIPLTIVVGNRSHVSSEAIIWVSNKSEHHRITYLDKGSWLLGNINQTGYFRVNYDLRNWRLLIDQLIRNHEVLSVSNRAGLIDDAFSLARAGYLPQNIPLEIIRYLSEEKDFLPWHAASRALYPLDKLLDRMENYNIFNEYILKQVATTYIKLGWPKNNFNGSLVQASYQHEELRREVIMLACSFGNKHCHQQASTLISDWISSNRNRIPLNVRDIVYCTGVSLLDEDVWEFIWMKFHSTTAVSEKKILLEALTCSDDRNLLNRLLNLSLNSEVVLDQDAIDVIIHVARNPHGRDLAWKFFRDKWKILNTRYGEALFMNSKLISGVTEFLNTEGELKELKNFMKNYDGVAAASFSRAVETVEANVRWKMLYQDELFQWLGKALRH
Assay: TRH-DE inhibition test (RapidFire MS measurement of product Cyclo (His-Pro))
Type: biochemical
Details: membrane fraction of Expi 293 cells expressing human TRH-DE; 10 μM TRH substrate; room temperature, 2 hours; 16-point concentration test
Method in brief: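 Inhibition derived from product/internal-standard ratios of Cyclo(His-Pro), quantified by RapidFire triple-quadrupole MS after acetonitrile:methanol quench, with IC50 fitted over 16 concentrations. Enzyme source: membranes of Expi 293 cells transiently expressing human TRH-DE, 4 μg/ml, pH 7.4 phosphate buffer. Incubation with 10 μM substrate ran 2 h at room temperature.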

SMILES	IC50
COCCCN1C[C@@H](C)N(C2CC3(C2)CN(S(=O)(=O)c2ccccc2F)C3)C(=O)c2ncccc21 [Example 246]	22 nM
CC1c2ccccc2N(C)C(=O)CN1C1CC2(C1)CN(S(=O)(=O)c1ccccc1F)C2 (stereo not shown) [Example 248]	731 nM
CCn1c2ccccc2c(=O)n1C1CC2(C1)CN(S(=O)(=O)c1ccccc1)C2 [Example 250, 2-[2-benzenesulfonyl-2-azaspiro[3.3]heptan-6-yl]-1-ethyl-indazol-3-one]	214 nM
C[C@@H]1CNc2cc(Cl)cnc2C(=O)N1C1CC2(C1)CN(S(=O)(=O)c1ccccc1F)C2 [Example 253]	8 nM
C[C@@H]1CNc2ncc(C(F)(F)F)cc2C(=O)N1C1CC2(C1)CN(S(=O)(=O)c1ccccc1[N+](=O)[O-])C2 [Example 257]	61 nM
Cc1nnc2n1CC[C@@H](C)N(C1CC3(C1)CN(S(=O)(=O)c1ccccc1F)C3)C2=O [Example 260, (7R)-8-[2-(2-fluorophenyl)sulfonyl-2-azaspiro[3.3]heptan-6-yl]-3,7-dimethyl-6,7-dihydro-5H-[1,2,4]triazolo[4,3-a][1,4]diazepin-9-one]	97 nM
C[C@@H]1CCn2c(nnc2C2CC2)C(=O)N1C1CC2(C1)CN(S(=O)(=O)c1ccccc1F)C2 [Example 261]	28 nM
C[C@@H]1CCn2c(nnc2C(C)(C)C)C(=O)N1C1CC2(C1)CN(S(=O)(=O)c1ccccc1F)C2 [Example 262]	91 nM
C[C@@H]1CCn2c(nnc2-c2ccccc2)C(=O)N1C1CC2(C1)CN(S(=O)(=O)c1ccccc1F)C2 [Example 263]	32 nM
C[C@@H]1Cn2c(nnc2C2CC2)C(=O)N1C1CC2(C1)CN(S(=O)(=O)c1ccccc1F)C2 [Example 265]	287 nM
CC1(O)c2ccccc2C(=O)N1C1CC2(C1)CN(S(=O)(=O)c1ccccc1F)C2 (stereo not shown) [Example 283, 2-[2-(2-fluorophenyl)sulfonyl-2-azaspiro[3.3]heptan-6-yl]-3-hydroxy-3-methyl-isoindolin-1-one]	67 nM
C[C@@H]1COc2c(noc2Br)C(=O)N1C1CC2(C1)CN(S(=O)(=O)c1ccccc1F)C2 [Example 297, (6R)-3-bromo-7-[2-(2-fluorophenyl)sulfonyl-2-azaspiro[3.3]heptan-6-yl]-6-methyl-5,6-dihydroisoxazolo[3,4-f][1,4]oxazepin-8-one]	18 nM
C[C@@H]1CCn2c(C3CC3)nc(Cl)c2C(=O)N1C1CC2(C1)CN(S(=O)(=O)c1ccccc1F)C2 [Example 299]	33 nM
CC1C=C(F)c2ncccc2C(=O)N1C1CC2(C1)CN(S(=O)(=O)c1ccccc1F)C2 (stereo not shown) [Example 301, 9-fluoro-6-[2-(2-fluorophenyl)sulfonyl-2-azaspiro[3.3]heptan-6-yl]-7-methyl-7H-pyrido[3,2-c]azepin-5-one]	91 nM
CCC(=O)N1C[C@@H](C)N(C2CC3(C2)CN(S(=O)(=O)c2ccccc2F)C3)C(=O)c2ncccc21 [Example 303]	82 nM
CCCC(=O)N1C[C@@H](C)N(C2CC3(C2)CN(S(=O)(=O)c2ccccc2F)C3)C(=O)c2ncccc21 [Example 304]	1070 nM
CC(C)C(=O)N1C[C@@H](C)N(C2CC3(C2)CN(S(=O)(=O)c2ccccc2F)C3)C(=O)c2ncccc21 [Example 305]	62 nM
C[C@@H]1CN(C(=O)C2CC2)c2cccnc2C(=O)N1C1CC2(C1)CN(S(=O)(=O)c1ccccc1F)C2 [Example 306]	56 nM
COCC(=O)N1C[C@@H](C)N(C2CC3(C2)CN(S(=O)(=O)c2ccccc2F)C3)C(=O)c2ncccc21 [Example 307]	285 nM
C[C@@H]1CN(C(=O)c2ccccc2)c2cccnc2C(=O)N1C1CC2(C1)CN(S(=O)(=O)c1ccccc1F)C2 [Example 308]	655 nM
C[C@@H]1CCn2cncc2C(=O)N1C1CC2(C1)CN(S(=O)(=O)c1ccccc1F)C2 [Example 309, (7R)-8-[2-(2-fluorophenyl)sulfonyl-2-azaspiro[3.3]heptan-6-yl]-7-methyl-6,7-dihydro-5H-imidazo[1,5-a][1,4]diazepin-9-one]	32 nM
C[C@@H]1CCn2cnc(C3CC3)c2C(=O)N1C1CC2(C1)CN(S(=O)(=O)c1ccccc1F)C2 [Example 310]	41 nM
C[C@@H]1COc2cc(C3CC3)cnc2C(=O)N1C1CC2(C1)CN(S(=O)(=O)c1ccccc1F)C2 [Example 311]	1 nM
C[C@@H]1COc2cc(C3CC3)ncc2C(=O)N1C1CC2(C1)CN(S(=O)(=O)c1ccccc1F)C2 [Example 313]	1 nM

The remaining lines, values ahead:

IC50	SMILES
2 nM	C[C@@H]1CN(C)c2nc(C(F)(F)F)ccc2C(=O)N1C1CC2(C1)CN(S(=O)(=O)c1ccccc1F)C2 [Example 247, (3R)-4-[2-(2-fluorophenyl)sulfonyl-2-azaspiro[3.3]heptan-6-yl]-1,3-dimethyl-8-(trifluoromethyl)-2,3-dihydropyrido[2,3-e][1,4]diazepin-5-one]
1 nM	C[C@@H]1CNc2nc(Cl)ccc2C(=O)N1C1CC2(C1)CN(S(=O)(=O)c1ccccc1F)C2 [Example 251, (3R)-8-chloro-4-[2-(2-fluorophenyl)sulfonyl-2-azaspiro[3.3]heptan-6-yl]-3-methyl-2,3-dihydro-1H-pyrido[2,3-e][1,4]diazepin-5-one]
2 nM	C[C@@H]1CNc2cc(C(F)(F)F)cnc2C(=O)N1C1CC2(C1)CN(S(=O)(=O)c1ccccc1F)C2 [Example 254]
7 nM	C[C@@H]1CNc2ncccc2C(=O)N1C1CC2(C1)CN(S(=O)(=O)c1ccccc1F)C2 [Example 255]
3 nM	C[C@@H]1CNc2ncc(C(F)(F)F)cc2C(=O)N1C1CC2(C1)CN(S(=O)(=O)c1ccccc1F)C2 [Example 256]
1 nM	C[C@@H]1CNc2nc(C3CC3)ccc2C(=O)N1C1CC2(C1)CN(S(=O)(=O)c1ccccc1F)C2 [Example 258, (3R)-8-cyclopropyl-4-[2-(2-fluorophenyl)sulfonyl-2-azaspiro[3.3]heptan-6-yl]-3-methyl-2,3-dihydro-1H-pyrido[2,3-e][1,4]diazepin-5-one]
459 nM	Cc1nnc2n1C[C@@H](C)N(C1CC3(C1)CN(S(=O)(=O)c1ccccc1F)C3)C2=O [Example 264]
92 nM	CC1c2ccccc2C(=O)N1C1CC2(C1)CN(S(=O)(=O)c1ccccc1F)C2 (stereo not shown) [Example 266, 2-[2-(2-fluorophenyl)sulfonyl-2-azaspiro[3.3]heptan-6-yl]-3-methyl-isoindolin-1-one]
42 nM	CC1(O)c2cc(C(F)(F)F)cnc2C(=O)N1C1CC2(C1)CN(S(=O)(=O)c1ccccc1F)C2 (stereo not shown) [Example 275, 6-[2-(2-fluorophenyl)sulfonyl-2-azaspiro[3.3]heptan-6-yl]-5-hydroxy-5-methyl-3-(trifluoromethyl)pyrrolo[3,4-b]pyridin-7-one]
104 nM	CC1c2cc(C(F)(F)F)cnc2C(=O)N1C1CC2(C1)CN(S(=O)(=O)c1ccccc1F)C2 (stereo not shown) [Example 290, 6-[2-(2-fluorophenyl)sulfonyl-2-azaspiro[3.3]heptan-6-yl]-5-methyl-3-(trifluoromethyl)-5H-pyrrolo[3,4-b]pyridin-7-one]
419 nM	CC1c2ccncc2C(=O)N1C1CC2(C1)CN(S(=O)(=O)c1ccccc1F)C2 (stereo not shown) [Example 296, 2-[2-(2-fluorophenyl)sulfonyl-2-azaspiro[3.3]heptan-6-yl]-1-methyl-1H-pyrrolo[3,4-c]pyridin-3-one]
25 nM	C[C@@H]1Cn2c(Br)nc(C3CC3)c2C(=O)N1C1CC2(C1)CN(S(=O)(=O)c1ccccc1F)C2 [Example 298]
168 nM	CC1CC(F)(F)c2ncccc2C(=O)N1C1CC2(C1)CN(S(=O)(=O)c1ccccc1F)C2 (stereo not shown) [Example 300, 9,9-Difluoro-6-[2-(2-fluorophenyl)sulfonyl-2-azaspiro[3.3]heptan-6-yl]-7-methyl-7,8-dihydropyrido[3,2-c]azepin-5-one]
47 nM	CC(=O)N1C[C@@H](C)N(C2CC3(C2)CN(S(=O)(=O)c2ccccc2F)C3)C(=O)c2ncccc21 [Example 302, (3R)-1-acetyl-4-[2-(2-fluorophenyl)sulfonyl-2-azaspiro[3.3]heptan-6-yl]-3-methyl-2,3-dihydropyrido[3,2-e][1,4]diazepin-5-one]
2 nM	Cc1cc2c(cn1)C(=O)N(C1CC3(C1)CN(S(=O)(=O)c1ccccc1F)C3)[C@H](C)CO2 [Example 312]
9 nM	Cc1ccc2c(n1)OC[C@@H](C)N(C1CC3(C1)CN(S(=O)(=O)c1ccccc1F)C3)C2=O [Example 314]
